Experimental data reported in patent US7138361B2, “Herbicidal heterocycles” (E. I. du Pont de Nemours and Company, priority 2000, dated 2006).

What was measured:
Assay in all cases: Test C postemergence
Assay type in all cases: in vivo
[1] = test system: goosegrass (Eleusine indica)
How it was run: (§1)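 Visual 0–100 rating vs controls (0 = no effect, 100 = complete control) at 12–14 d, greenhouse. Compounds in non-phytotoxic solvent + surfactant; pre: sprayed after seeding; post: 1–4-leaf plants, 2–18 cm.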

[2] = test system: cocklebur (Xanthium strumarium)
How it was run: as §1

[3] = test system: velvetleaf (Abutilon theophrasti)
How it was run: as §1

[4] = test system: corn (Zea mays)
How it was run: as §1

[5] = test system: Surinam grass (Brachiaria decumbens)
How it was run: as §1

[6] = test system: giant foxtail (Setaria faberii)
How it was run: as §1

[7] = test system: soybean (Glycine max)
How it was run: as §1

[8] = test system: johnsongrass (Sorghum halepense)
How it was run: as §1

[9] = test system: yellow nutsedge (Cyperus esculentus)
How it was run: as §1

[10] = test system: kochia (Kochia scoparia)
How it was run: as §1

[11] = test system: woolly cupgrass (Eriochloa villosa)
How it was run: as §1

[12] = test system: chickweed (Stellaria media)
How it was run: as §1

[13] = test system: common ragweed (Ambrosia elatior)
How it was run: as §1

[14] = test system: pigweed (Amaranthus retroflexus)
How it was run: as §1

[15] = test system: crabgrass (Digitaria sanguinalis)
How it was run: as §1

[16] = test system: bermudagrass (Cynodon dactylon)
How it was run: as §1

[17] = test system: lambsquarters (Chenopodium album)
How it was run: as §1

[18] = Rate 125 g/ha, scale 0 to 100, 0 no effect, 100 complete control
[19] = Rate 250 g/ha, scale 0 to 100 (0 no effect, 100 complete control)
[20] = Rate 500 g/ha, scale 0 to 100 (0 no effect, 100 complete control)

Compound: CCC(CC)c1ccn(C2CCN(c3ccc(C)c(OC)c3)C2=O)n1 (stereo not shown) [Compound 81]
- Plant response rating, Goosegrass ([1]; Rate 31 g/ha, scale 0 to 100): 0
- Plant response rating, Goosegrass ([1]; Rate 62 g/ha, scale 0 to 100): 0
- Plant response rating, Goosegrass [1, 18]: 0
- Plant response rating, Goosegrass [1, 19]: 20
- Plant response rating, Cocklebur ([2]; Rate 31 g/ha, scale 0 to 100): 0
- Plant response rating, Cocklebur ([2]; Rate 62 g/ha, scale 0 to 100): 0
- Plant response rating, Cocklebur [2, 18]: 20
- Plant response rating, Cocklebur [2, 19]: 50
- Plant response rating, Velvetleaf ([3]; Rate 31 g/ha, scale 0 to 100): 20
- Plant response rating, Velvetleaf ([3]; Rate 62 g/ha, scale 0 to 100): 20
- Plant response rating, Velvetleaf [3, 18]: 20
- Plant response rating, Velvetleaf [3, 19]: 20
- Plant response rating, Corn ([4]; Rate 31 g/ha, scale 0 to 100): 0
- Plant response rating, Corn ([4]; Rate 62 g/ha, scale 0 to 100): 0
- Plant response rating, Corn [4, 18]: 0
- Plant response rating, Corn [4, 19]: 0
- Plant response rating, Surinam grass ([5]; Rate 31 g/ha, scale 0 to 100): 0
- Plant response rating, Surinam grass ([5]; Rate 62 g/ha, scale 0 to 100): 0
- Plant response rating, Surinam grass [5, 18]: 0
- Plant response rating, Surinam grass [5, 19]: 0
- Plant response rating, Foxtail, Giant ([6]; Rate 31 g/ha, scale 0 to 100): 0
- Plant response rating, Foxtail, Giant ([6]; Rate 62 g/ha, scale 0 to 100): 0
- Plant response rating, Foxtail, Giant [6, 18]: 0
- Plant response rating, Foxtail, Giant [6, 19]: 0
- Plant response rating, Soybean ([7]; Rate 31 g/ha, scale 0 to 100): 50
- Plant response rating, Soybean ([7]; Rate 62 g/ha, scale 0 to 100): 60
- Plant response rating, Soybean [7, 18]: 70
- Plant response rating, Soybean [7, 19]: 90
- Plant response rating, Johnsongrass ([8]; Rate 31 g/ha, scale 0 to 100): 0
- Plant response rating, Johnsongrass ([8]; Rate 62 g/ha, scale 0 to 100): 0
- Plant response rating, Johnsongrass [8, 18]: 0
- Plant response rating, Johnsongrass [8, 19]: 0
- Plant response rating, Nutsedge ([9]; Rate 31 g/ha, scale 0 to 100): 0
- Plant response rating, Nutsedge ([9]; Rate 62 g/ha, scale 0 to 100): 0
- Plant response rating, Nutsedge [9, 18]: 0
- Plant response rating, Nutsedge [9, 19]: 0
- Plant response rating, Kochia ([10]; Rate 31 g/ha, scale 0 to 100): 40
- Plant response rating, Kochia ([10]; Rate 62 g/ha, scale 0 to 100): 50
- Plant response rating, Kochia [10, 18]: 50
- Plant response rating, Kochia [10, 19]: 70
- Plant response rating, Cupgrass, Woolly ([11]; Rate 31 g/ha, scale 0 to 100): 0
- Plant response rating, Cupgrass, Woolly ([11]; Rate 62 g/ha, scale 0 to 100): 0
- Plant response rating, Cupgrass, Woolly [11, 18]: 0
- Plant response rating, Cupgrass, Woolly [11, 19]: 0
- Plant response rating, Chickweed ([12]; Rate 31 g/ha, scale 0 to 100): 0
- Plant response rating, Chickweed ([12]; Rate 62 g/ha, scale 0 to 100): 20
- Plant response rating, Chickweed [12, 18]: 20
- Plant response rating, Chickweed [12, 19]: 60
- Plant response rating, Ragweed, Common ([13]; Rate 31 g/ha, scale 0 to 100): 0
- Plant response rating, Ragweed, Common ([13]; Rate 62 g/ha, scale 0 to 100): 0
- Plant response rating, Ragweed, Common [13, 18]: 0
- Plant response rating, Ragweed, Common [13, 19]: 0
- Plant response rating, Pigweed ([14]; Rate 31 g/ha, scale 0 to 100): 0
- Plant response rating, Pigweed ([14]; Rate 62 g/ha, scale 0 to 100): 0
- Plant response rating, Pigweed [14, 18]: 0
- Plant response rating, Pigweed [14, 19]: 60
- Plant response rating, Crabgrass ([15]; Rate 31 g/ha, scale 0 to 100): 0
- Plant response rating, Crabgrass ([15]; Rate 62 g/ha, scale 0 to 100): 0
- Plant response rating, Crabgrass [15, 18]: 0
- Plant response rating, Crabgrass [15, 19]: 0
- Plant response rating, Bermudagrass ([16]; Rate 31 g/ha, scale 0 to 100): 0
- Plant response rating, Bermudagrass ([16]; Rate 62 g/ha, scale 0 to 100): 0
- Plant response rating, Bermudagrass [16, 18]: 0
- Plant response rating, Bermudagrass [16, 19]: 0
- Plant response rating, Lambsquarters ([17]; Rate 31 g/ha, scale 0 to 100): 0
- Plant response rating, Lambsquarters ([17]; Rate 62 g/ha, scale 0 to 100): 60
- Plant response rating, Lambsquarters [17, 19]: 80

Compound: COc1cc(N2CCC(n3ccc(C(C)C)n3)C2=O)ccc1C (stereo not shown) [Compound 85]
- Plant response rating, Goosegrass ([1]; Rate 62 g/ha, scale 0 to 100): 10
- Plant response rating, Goosegrass [1, 18]: 10
- Plant response rating, Goosegrass [1, 19]: 20
- Plant response rating, Goosegrass [1, 20]: 60
- Plant response rating, Cocklebur ([2]; Rate 62 g/ha, scale 0 to 100): 40
- Plant response rating, Cocklebur [2, 18]: 70
- Plant response rating, Cocklebur [2, 19]: 90
- Plant response rating, Cocklebur [2, 20]: 90
- Plant response rating, Velvetleaf ([3]; Rate 62 g/ha, scale 0 to 100): 40
- Plant response rating, Velvetleaf [3, 18]: 40
- Plant response rating, Velvetleaf [3, 19]: 40
- Plant response rating, Velvetleaf [3, 20]: 40
- Plant response rating, Corn ([4]; Rate 62 g/ha, scale 0 to 100): 50
- Plant response rating, Corn [4, 18]: 50
- Plant response rating, Corn [4, 19]: 50
- Plant response rating, Corn [4, 20]: 60
- Plant response rating, Surinam grass ([5]; Rate 62 g/ha, scale 0 to 100): 0
- Plant response rating, Surinam grass [5, 18]: 20
- Plant response rating, Surinam grass [5, 19]: 20
- Plant response rating, Surinam grass [5, 20]: 60
- Plant response rating, Foxtail, Giant ([6]; Rate 62 g/ha, scale 0 to 100): 20
- Plant response rating, Foxtail, Giant [6, 18]: 20
- Plant response rating, Foxtail, Giant [6, 19]: 40
- Plant response rating, Foxtail, Giant [6, 20]: 70
- Plant response rating, Soybean ([7]; Rate 62 g/ha, scale 0 to 100): 60
- Plant response rating, Soybean [7, 18]: 60
- Plant response rating, Soybean [7, 19]: 70
- Plant response rating, Soybean [7, 20]: 70
- Plant response rating, Johnsongrass ([8]; Rate 62 g/ha, scale 0 to 100): 30
- Plant response rating, Johnsongrass [8, 18]: 40
- Plant response rating, Johnsongrass [8, 19]: 40
- Plant response rating, Johnsongrass [8, 20]: 70
- Plant response rating, Nutsedge ([9]; Rate 62 g/ha, scale 0 to 100): 10
- Plant response rating, Nutsedge [9, 20]: 90
- Plant response rating, Kochia ([10]; Rate 62 g/ha, scale 0 to 100): 40
- Plant response rating, Kochia [10, 18]: 60
- Plant response rating, Kochia [10, 19]: 80
- Plant response rating, Kochia [10, 20]: 90
- Plant response rating, Cupgrass, Woolly ([11]; Rate 62 g/ha, scale 0 to 100): 30
- Plant response rating, Cupgrass, Woolly [11, 18]: 30
- Plant response rating, Cupgrass, Woolly [11, 19]: 60
- Plant response rating, Cupgrass, Woolly [11, 20]: 70
- Plant response rating, Chickweed ([12]; Rate 62 g/ha, scale 0 to 100): 20
- Plant response rating, Chickweed [12, 18]: 70
- Plant response rating, Chickweed [12, 19]: 100
- Plant response rating, Chickweed [12, 20]: 100
- Plant response rating, Ragweed, Common ([13]; Rate 62 g/ha, scale 0 to 100): 0
- Plant response rating, Ragweed, Common [13, 18]: 20
- Plant response rating, Ragweed, Common [13, 19]: 20
- Plant response rating, Ragweed, Common [13, 20]: 90
- Plant response rating, Pigweed ([14]; Rate 62 g/ha, scale 0 to 100): 60
- Plant response rating, Pigweed [14, 18]: 70
- Plant response rating, Pigweed [14, 19]: 90
- Plant response rating, Pigweed [14, 20]: 100
- Plant response rating, Crabgrass ([15]; Rate 62 g/ha, scale 0 to 100): 30
- Plant response rating, Crabgrass [15, 18]: 30
- Plant response rating, Crabgrass [15, 19]: 40
- Plant response rating, Crabgrass [15, 20]: 70
- Plant response rating, Bermudagrass ([16]; Rate 62 g/ha, scale 0 to 100): 0
- Plant response rating, Bermudagrass [16, 18]: 0
- Plant response rating, Bermudagrass [16, 19]: 80
- Plant response rating, Bermudagrass [16, 20]: 90
- Plant response rating, Lambsquarters ([17]; Rate 62 g/ha, scale 0 to 100): 70
- Plant response rating, Lambsquarters [17, 18]: 90
- Plant response rating, Lambsquarters [17, 19]: 100
- Plant response rating, Lambsquarters [17, 20]: 100
